The source of these data is patent US4894173A, “Divalent ion tolerant aromatic sulfonates” (The Standard Oil Company, priority 1988, dated 1990).

What all share (assay type): physicochemical
Data set [1] can be described thus: 60° C. solubility in deionized (distilled) water and in seawater. Details: key to 60° C. Solubility (@ mEq/L), H2O / 60° C. Solubility (@ mEq/L), Seawater: S: completely soluble; P: partially soluble; I: insoluble; T: turbid solution. How it is done: As mentioned above, surfactants for EOR must be compatible with divalent ion containing brines such as seawater. Solubility tests were carried out in both deionized water and in seawater. The surfactants of this invention (Examples 1-5) were all soluble in seawater. […] A commercial sulfonate (SDBS, Comparative Example 3) was insoluble in seawater. All surfactants were soluble in distilled water.
^ d S = completely soluble P = partially soluble I = insoluble T =

Data set [2] in a line: Calcium-ion tolerance (calcium precipitation) test. The note with it: for Calcium Precipitation (ppm CA^2+): 10 mEq/L surfactant titrated with 5 M CaCl2 until transmittance (600 nm) 80% of initial; for Calcium Precipitation (ppm CA^2+), lower concentration / Calcium Precipitation (ppm CA^2+), higher concentration: 10 mEq/L; for Calcium Precipitation (ppm CA^2+), lower concentration: one component apparently precipitates at the lower calcium ion concentration; for Calcium Precipitation (ppm CA^2+), higher concentration: remainder precipitates at the higher calcium concentration. The method, then: Calcium-ion tolerance tests were conducted to quantify the relative solubility of the surfactants in the presence of divalent ions (see Table 2). All of the surfactants of this invention tolerated calcium ion concentrations from 28 to 10,000 times higher than the comparative examples.
^e A 10 mEq/L solution of Surfactant was titrated with 5 M CaCl2
solution until the transmittance of the solution (600 nm) was reduced to
80% of the initial value.
^g One component apparently precipitates out at the lower calcium ion
concentration and the reminder at the higher calcium concentration.

The nature of data set [3]: Surface tension (lowering of the air/water surface tension), Table 2. The note with it: 10 mEq/L, deionized water, 22° C. The method, then: The surface activity - lowering of the air/water surface tension - of the
surfactants was also measured. Surface tensions were measured at a
surfactant concentration of 10 milliequivalents/L in deionized water at
22° C. or a Fisher Autotensiomat (de Nouy ring) apparatus. At this
concentration, all the surfactants should be above their critical micell
^f Of a 10 mEq/L solution of surfactant at 22° C.

Data set [4] is described as follows: CMC (critical micelle concentration) from surface tension vs. surfactant concentration curves. The settings on record: calcium ion concentration 0. How it is done: (§1) Surface tensions (in dynes/cm) were measured using the Du Nouy ring method. The reported surface tensions are for 10 meq/L surfactant solutions: which is above the CMC (critical micelle concentration). The CMC's (in meq/L) were determined by examination of surface tension vs. surfactant concentration curves.

Data set [5] is described as follows: Foam formation/stability, simple version of the Ross-Miles foam test. The note with it: 10 meq/L. The method, then: Foam tests were conducted using a simple version of the Ross-Miles foam test. The initial (0 min) foam volume for SDBS was assigned a value of 100. All other foam volumes were related to this value.
The nature of data set [6]: Thermal stability at 90° C.; surfactant activity by two-phase titration. The note with it: for Surfactant Activity (%): 90° C.; for appearance: aged at 90° C. The method, then: Surfactant solutions were prepared in distilled water, 1.2M sodium hydroxide, and 1.2M hydrochloric acid. These solutions were aged at 90° C. Samples were withdrawn at regular interval and surfactant activity was determined by two-phase titration.

Data set [7] is described as follows: Surface tension by Du Nouy ring method at varied calcium ion concentration, Table 3. How it is done: as §1
Data set [8] can be described thus: Divalent ion tolerance as stated in the description. The settings on record: divalent ion concentration tolerated / stable to.

As to `CCCCCCC(CO)CCC(C)c1ccc(S(=O)(=O)O)cc1` (stereo not shown) [Example 1], the “60° C. Solubility (@ mEq/L), H2O” value in data set [1] (18 mEq/L) is recorded as “S”. Besides, the “Calcium Precipitation (ppm CA^2+)” value in data set [2] was 2800 ppm. Moreover, the “Surface Tension” value in data set [3] is recorded as 25.1 Dyne/cm.
In the case of `CCCCCCCCCCCCc1ccc(O)c(S(=O)(=O)O)c1` [Comparative Example 1], the “60° C. Solubility (@ mEq/L), H2O” value in data set [1] (24 mEq/L) is given as “S”. In addition, the “solubility in seawater (in words)” value in data set [1] is “either insoluble or partially soluble”. The “60° C. Solubility (@ mEq/L), Seawater” value in data set [1] (25 mEq/L) is on record as “I”. The “Calcium Precipitation (ppm CA^2+)” value in data set [2] is given as < 80 ppm. The “Surface Tension” value in data set [3] came out at 23.4 Dyne/cm.
`CCCCCCCCCc1ccc(O)c(S(=O)(=O)O)c1` [Comparative Example 2]: in data set [1] (30 mEq/L), the “60° C. Solubility (@ mEq/L), H2O” value is “S,T”. Also, the “solubility in seawater (in words)” value in data set [1] is recorded as “either insoluble or partially soluble”. Besides, the “60° C. Solubility (@ mEq/L), Seawater” value in data set [1] (28 mEq/L) was “P”. The “Calcium Precipitation (ppm CA^2+)” value in data set [2] was 160 ppm. The “Surface Tension” value in data set [3] is given as 24.9 Dyne/cm.
With `CCCCCCC(CO)Cc1ccc(S(=O)(=O)O)cc1` (stereo not shown) [Example 4], the “60° C. Solubility (@ mEq/L), H2O” value in data set [1] (15 mEq/L) is reported as “S”. Also, the “60° C. Solubility (@ mEq/L), Seawater” value in data set [1] (26 mEq/L) is listed as “S”. For the same compound, in data set [2], the “Calcium Precipitation (ppm CA^2+), lower concentration” value was found to be 350 ppm and the Calcium Precipitation (ppm CA^2+), higher concentration was found to be 57000 ppm. For the same compound, the “Surface Tension” value in data set [3] came out at 25.2 Dyne/cm.
For the compound `CCCCCC(CO)CCC(C)c1ccc(S(=O)(=O)O)cc1` (stereo not shown) [Example 2], in data set [1] (35 mEq/L), the “60° C. Solubility (@ mEq/L), H2O” value is reported as “S”. For the same compound, the “60° C. Solubility (@ mEq/L), Seawater” value in data set [1] (34 mEq/L) was “S”. Further, in data set [2], the “Calcium Precipitation (ppm CA^2+), lower concentration” value amounted to 355 ppm and the Calcium Precipitation (ppm CA^2+), higher concentration stood at 20000 ppm. For the same compound, in data set [3], the “Surface Tension” value worked out at 25.6 Dyne/cm.
As to `CCCCCCCCC(CO)Cc1ccc(S(=O)(=O)O)cc1` (stereo not shown) [Example 5], the “60° C. Solubility (@ mEq/L), H2O” value in data set [1] (15 mEq/L) is “S”. Moreover, the “60° C. Solubility (@ mEq/L), Seawater” value in data set [1] (27 mEq/L) was “S”. Besides, the “Calcium Precipitation (ppm CA^2+)” value in data set [2] came to 100K. Besides, the “Surface Tension” value in data set [3] came out at 29.3 Dyne/cm.
On to sodium dodecylbenzenesulfonate [SDBS], for which the CMC in data set [4] was found to be 1 meq/L. For the same compound, in data set [1] (27 mEq/L), the “60° C. Solubility (@ mEq/L), H2O” value was “S”. In data set [1], the “solubility in seawater (in words)” value is “insoluble”. Moreover, in data set [1] (27 mEq/L), the “60° C. Solubility (@ mEq/L), Seawater” value is “I”. Moreover, the “Foam Volume (relative to initial SDBS = 100)” value in data set [5] (0 min) turned out to be 100; in data set [5] (+5 min), 94; in data set [5] (+15 min) it was 83; in data set [5] (+30 min), 77; in data set [5] (+45 min), 71. In addition, in data set [2], the “Calcium Precipitation (ppm CA^2+)” value is reported as 90 ppm. In addition, the “Surface Tension” value in data set [3] was found to be 28.6 Dyne/cm; in data set [7] (10 meq/L surfactant, calcium ion concentration 0), 29 dynes/cm. For the same compound, the “Surfactant Activity (%)” value in data set [6] (1.2 M HCl, 0 hr) came to 100%; in data set [6] (1.2 M HCl, 305 hr) it was 92%; in data set [6] (1.2 M HCl, 500 hr), 59%; in data set [6] (1.2 M HCl, 720 hr), 41%; in data set [6] (1.2 M NaOH, 0 hr) it was 1%; in data set [6] (distilled water, 0 hr) it was 100%. The “Surfactant Activity (%)” value in data set [6] (distilled water, 330 hr) came out at 93%; in data set [6] (distilled water, 525 hr) it was 93%; in data set [6] (distilled water, 740 hr), 93%. In addition, the appearance result was “ppt” in data set [6] (1.2 M HCl), “ppt” in data set [6] (1.2 M NaOH) and “clear” in data set [6] (distilled water). Also, the “Surface Tension (observation in words)” value in data set [7] (calcium ion concentration 1000 PPM) and in data set [7] (calcium ion concentration 10,000 PPM) was “surfactant precipitate” each time. In data set [8], this compound showed a divalent ion tolerance of 100 ppm.
Take `CCCCCCCCC(CO)CCC(C)c1ccc(S(=O)(=O)O)cc1` (stereo not shown) [Example 3]: the “60° C. Solubility (@ mEq/L), H2O” value in data set [1] (18 mEq/L) is “S”. For the same compound, the “60° C. Solubility (@ mEq/L), Seawater” value in data set [1] (27 mEq/L) is reported as “S”. Further, the “Calcium Precipitation (ppm CA^2+)” value in data set [2] stood at 40K. In data set [3], the “Surface Tension” value was 26.4 Dyne/cm.
